PubChem BioAssay (NCI)
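In this assay, cells in 96-well plates receive the compound at five concentrations for 48 hours. Endpoints are linearly interpolated between the surrounding concentrations. The concentration for 50% growth inhibition is given as GI50. TGI marks complete inhibition of growth.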

Columns and labels:
Test in all cases: NCI-60 cell line screen, 48 h; in the data active = GI50 below about 0.43 µM; inactive = the rest
[1] = system: A498 renal
[2] = system: ACHN renal
[3] = system: UACC-257 melanoma
[4] = system: NCI-H460 lung
[5] = system: SK-OV-3 ovarian
[6] = system: CAKI-1 renal
[7] = system: LXFL 529 NSCLC
[8] = system: LOX IMVI melanoma
[9] = system: CCRF-CEM leukemia
[10] = system: UACC-62 melanoma
[11] = system: M19-MEL melanoma
[12] = system: COLO 205 colon
[13] = system: EKVX NSCLC
[14] = system: RPMI-8226 leukemia
[15] = system: OVCAR-4 ovarian
[16] = system: SW-620 colon
[17] = system: A549 NSCLC
[18] = system: HOP-92 NSCLC
[19] = system: SK-MEL-5 melanoma
[20] = system: OVCAR-8 ovarian
[21] = system: SF-295 CNS
[22] = system: MALME-3M melanoma
[23] = system: SK-MEL-2 melanoma
[24] = system: RXF 393 renal
[25] = system: HL-60(TB) leukemia
[26] = system: SF-268 CNS
[27] = system: SK-MEL-28 melanoma
[28] = system: NCI-H23 lung
[29] = system: SN12C renal
[30] = system: 786-0 renal
[31] = system: MOLT-4 leukemia
[32] = system: HOP-62 NSCLC
[33] = system: OVCAR-5 ovarian
[34] = system: OVCAR-3 ovarian
[35] = system: DLD-1 colon
[36] = system: NCI-H522 lung
[37] = system: M14 melanoma
[38] = system: KM20L2 colon
[39] = system: SNB-75 CNS
[40] = system: IGROV1 ovarian
[41] = system: K-562 leukemia
[42] = system: U251 CNS
[43] = system: KM12 colon
[44] = system: HCT-15 colon
[45] = system: HT29 colon
[46] = system: TK-10 renal

CC(=O)[CH-]C(=O)c1ccccc1.CC(=O)[CH-]C(=O)c1ccccc1.CC(=O)[CH-]C(=O)c1ccccc1.[Cl-].[Hf+4]
39.8 µM: TGI [22]
92.9 µM: TGI [13]
> 100 µM: TGI [2] | TGI [4] | TGI [5] | TGI [7] | TGI [9] | TGI [10] | TGI [11] | TGI [12] | TGI [14] | TGI [15] | TGI [16] | TGI [17] | TGI [19] | TGI [20] | TGI [21] | TGI [24] | TGI [25] | TGI [26] | TGI [28] | TGI [29] | TGI [30] | TGI [31] | TGI [32] | TGI [34] | TGI [35] | TGI [36] | TGI [38] | TGI [40] | TGI [41] | TGI [42] | TGI [43] | TGI [44] | TGI [45] | TGI [46]
71.8 µM: TGI [33]
60.8 µM: TGI [37]
75.5 µM: TGI [1]
62.6 µM: TGI [6]
85.3 µM: TGI [27]
92.2 µM: TGI [8]
inactive: GI50 [1] 25.5 µM | GI50 [2] 31.3 µM | GI50 [3] 19.9 µM | GI50 [4] 38.5 µM | GI50 [5] 46.1 µM | GI50 [6] 20.1 µM | GI50 [7] 39.4 µM | GI50 [8] 14.4 µM | GI50 [9] 9.36 µM | GI50 [10] 29.7 µM | GI50 [11] 27.3 µM | GI50 [12] 34 µM | GI50 [13] 24.2 µM | GI50 [14] 34.2 µM | GI50 [15] 86.5 µM | GI50 [16] 52.2 µM | GI50 [17] 46.4 µM | GI50 [18] 18.9 µM | GI50 [19] 32.5 µM | GI50 [20] 27.9 µM | GI50 [21] 19.8 µM | GI50 [22] 14.8 µM | GI50 [23] 18.1 µM | GI50 [24] 47.4 µM | GI50 [25] 25.8 µM | GI50 [26] 23.7 µM | GI50 [27] 23.6 µM | GI50 [28] 39.1 µM | GI50 [29] 28.8 µM | GI50 [30] 25.7 µM | GI50 [31] 15.4 µM | GI50 [32] 51.2 µM | GI50 [33] 22.8 µM | GI50 [34] 13.6 µM | GI50 [35] 25.8 µM | GI50 [36] 26.5 µM | GI50 [37] 18.6 µM | GI50 [38] 25.1 µM | GI50 [39] 22.2 µM | GI50 [40] 47 µM | GI50 [41] 37.6 µM | GI50 [42] 22 µM | GI50 [43] 36.1 µM | GI50 [44] 23.9 µM | GI50 [45] 19.1 µM | GI50 [46] 39 µM
75.3 µM: TGI [3]
53.2 µM: TGI [23]
50.4 µM: TGI [18]
70.4 µM: TGI [39]
